Measurements as given in patent US9381200B2, “Nitrogen containing compounds” (WOCKHARDT LIMITED, priority 2011, dated 2016).
Values after ≈ are worked out from the molar mass of the structure shown. Read-outs that look alike come from different tables or passages of the source.

Experiments:
Type in all cases: cell-based
A. baumannii G-165 = experiment: Antibacterial activity of sulbactam / Cefepime combinations with a compound of the invention (MIC); conditions: Acinetobacter baumannii
Description: (§1) The biological activity of representative compounds according to the invention against various bacterial strains was investigated. In a typical study, overnight grown bacterial cultures were diluted appropriately and inoculated on the agar media containing doubling dilutions of the test compounds. Observation for growth or no growth was performed after 16-20 hours of incubation at 35±2° C. in ambient air. The overall procedure was performed as per Clinical and Laboratory Standards Institute (CLSI) recommendations (Clinical and Laboratory Standards Institute (CLSI), Performance Standards for Antimicrobial Susceptibility Testing, 20th Informational Supplement, M 100-S20, Volume 30, No. 1, 2010).

A. baumannii 1460648 = experiment: as above
Description: as §1

A. baumannii J-143 = experiment: as above; conditions: Acinetobacter baumannii
Description: as §1

A. baumannii S-334 = experiment: as above; conditions: Acinetobacter baumannii
Description: as §1

E. coli M 50 = experiment: Antibacterial activity (MIC), agar dilution per CLSI; conditions: Escherichia coli, read-out: MIC
How it was run: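 Overnight bacterial cultures, suitably diluted, were inoculated onto agar media containing doubling dilutions of test compound. Plates were incubated 16-20 hours at 35±2° C. in ambient air and scored for growth or no growth following CLSI recommendations. MIC is reported in mcg/ml.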

E. coli 7 MP = experiment: as above; conditions: Escherichia coli, Table 3, E. coli 7 MP expressing ESBL, read-out: MIC
How it was run: (§2)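 Agar dilution MIC per CLSI: overnight cultures diluted and inoculated onto agar containing doubling dilutions of compound. Growth/no growth read after 16-20 h at 35±2° C in ambient air. Strains express ESBL.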

E. coli NCTC 13351 = experiment: as above; conditions: Escherichia coli, NCTC13351, Table 3, E. coli NCTC 13351 expressing ESBL, 16-20 hours, 35±2° C., read-out: MIC
How it was run: as §2

E. Coli W 13351 = experiment: Antibacterial activity (MIC) against MDR Gram negative strains; conditions: Escherichia coli; Table 4; E. Coli W 13351, Class A ESBL, MDR; read-out: MIC
Description: as §1
(§3) The activities are expressed as MICs (mcg/ml).

P. aeruginosa ATCC 27853 = experiment: as above; conditions: Pseudomonas aeruginosa, ATCC27853; Table 5; P. aeruginosa ATCC 27853; read-out: MIC
Description: as §1, §3

E. Coli W 13352 = experiment: as above; conditions: Escherichia coli; Table 4; E. Coli W 13352, Class A ESBL, MDR; read-out: MIC
Description: as §1, §3

E. Coli W 13353 = experiment: as above; conditions: Escherichia coli; Table 4; E. Coli W 13353, Class A ESBL, MDR; read-out: MIC
Description: as §1, §3

K penumoniae H 523 = experiment: as above; conditions: Table 4; K penumoniae H 523, KPC ESBL, MDR; read-out: MIC
Description: as §1, §3

P. aeruginosa Ps 21 = experiment: as above; conditions: Pseudomonas aeruginosa, PS21; Table 5; P. aeruginosa Ps 21; read-out: MIC
Description: as §1, §3

E. Coli M 44 = experiment: as above; conditions: Escherichia coli; Table 5; E. Coli M 44, Class B ESBL, MDR; read-out: MIC
Description: as §1, §3

E. Coli B 89 = experiment: as above; conditions: Escherichia coli; Table 4; E. Coli B 89, Class C ESBL, MDR; read-out: MIC
Description: as §1, §3

K penumoniae H 525 = experiment: as above; conditions: Table 4; K penumoniae H 525, KPC ESBL, MDR; read-out: MIC
Description: as §1, §3

E. Coli H 484 = experiment: as above; conditions: Escherichia coli; Table 4; E. Coli H 484, Class C ESBL, MDR; read-out: MIC
Description: as §1, §3

K. penumoniae S 48 = experiment: as above; conditions: Table 5; K. penumoniae S 48, Class B ESBL, MDR; read-out: MIC
Description: as §1, §3

P. aeruginosa Ps 32 = experiment: as above; conditions: Pseudomonas aeruginosa, PS32; Table 5; P. aeruginosa Ps 32; read-out: MIC
Description: as §1, §3

E. Coli M 3 = experiment: as above; conditions: Escherichia coli; Table 5; E. Coli M 3, Class B ESBL, MDR; read-out: MIC
Description: as §1, §3

K penumoniae H 521 = experiment: as above; conditions: Table 4; K penumoniae H 521, KPC ESBL, MDR; read-out: MIC
Description: as §1, §3

P. vulgaris S-137B = experiment: Antibacterial activity of Ceftazidime in presence of compounds of the invention (MIC); conditions: Proteus vulgaris, S137B; Table 6; P. vulgaris S-137B (ESBL type: Class C); Ceftazidime alone or with compound at fixed 4 mcg/ml as named in the composition
Description: as §1
(§4) The antibacterial activity of representative compounds according to the invention was also investigated in combination with at least one antibacterial agent using the above study protocol and the results are given Table 6.

[1] = system: K. pneumoniae ATCC 700603; experiment: as above; conditions: Klebsiella pneumoniae, ATCC700603; Table 6; K. pneumoniae ATCC 700603 (ESBL type: Class A); Ceftazidime alone or with compound at fixed 4 mcg/ml as named in the composition
Description: as §1, §4

[2] = G165, footnotes of Tables 7 and 8, A. baumannii G-165, substance used alone, read-out: Standalone MIC
[3] = Acinetobacter baumannii, footnotes of Tables 7 and 8, A. baumannii 1460648, substance used alone, read-out: Standalone MIC
[4] = J143, footnotes of Tables 7 and 8, A. baumannii J-143, substance used alone, read-out: Standalone MIC
[5] = S334, footnotes of Tables 7 and 8, A. baumannii S-334, substance used alone, read-out: Standalone MIC
[6] = M50, Table 3, E. coli M 50 expressing ESBL, agar dilution
[7] = M50, Table 4, E. Coli M 50, Class C ESBL, MDR

Row | Structure (SMILES) | MIC (A. baumannii G-165; [2]) | MIC (A. baumannii 1460648; [3]) | MIC (E. coli M 50; [6]) | MIC (E. coli M 50; [7]) | MIC (E. coli 7 MP) | MIC (E. coli NCTC 13351) | MIC (E. Coli W 13351) | MIC (P. aeruginosa ATCC 27853) | MIC (E. Coli W 13352) | MIC (E. Coli W 13353) | MIC (K penumoniae H 523) | MIC (P. aeruginosa Ps 21) | MIC (E. Coli M 44) | MIC (E. Coli B 89) | MIC (K penumoniae H 525) | MIC (E. Coli H 484) | MIC (K. penumoniae S 48) | MIC (P. aeruginosa Ps 32) | MIC (E. Coli M 3) | MIC (K penumoniae H 521) | other results
1 | CC1(C)[C@H](C(=O)O)N2C(=O)C[C@H]2S1(=O)=O [Sulbactam, sulbactam] |  |  |  |  |  |  |  |  |  |  |  |  |  |  |  |  |  |  |  |  | MIC (A. baumannii G-165; G165, read-out: MIC of sulbactam): 32 µg/mL; MIC (A. baumannii G-165; G165, read-out: Standalone MIC): 32 µg/mL; MIC (A. baumannii 1460648; Acinetobacter baumannii, 1460648, read-out: MIC of sulbactam): 32 µg/mL; MIC (A. baumannii 1460648; Acinetobacter baumannii, 1460648, read-out: Standalone MIC): 32 µg/mL; MIC (A. baumannii J-143; J143, read-out: MIC of sulbactam): 32 µg/mL; MIC (A. baumannii J-143; J143, read-out: Standalone MIC): 32 µg/mL; MIC (A. baumannii S-334; S334, read-out: MIC of sulbactam): 32 µg/mL; MIC (A. baumannii S-334; S334, read-out: Standalone MIC): 32 µg/mL
2 | O=C(NNC(=O)[C@@H]1CC[C@@H]2CN1C(=O)N2OS(=O)(=O)O)[C@@H]1CCNC1 [Example 3, trans-sulfuric acid mono-[2-(N′—[(R)-pyrrolidin-3-carbonyl]-hydrazinocarbonyl)-7-oxo-1,6-diaza-bicyclo[3.2.1]oct-6-yl]ester] | > 32 µg/mL | > 32 µg/mL | 0.25 µg/mL (≈ 0.662 µM) | 0.5 µg/mL (≈ 1.32 µM) | 1 µg/mL (≈ 2.65 µM) | 0.25 µg/mL (≈ 0.662 µM) | 0.5 µg/mL (≈ 1.32 µM) | 2 µg/mL (≈ 5.3 µM) | 0.5 µg/mL (≈ 1.32 µM) | 0.25 µg/mL (≈ 0.662 µM) | 0.5 µg/mL (≈ 1.32 µM) | 4 µg/mL (≈ 10.6 µM) | 0.12 µg/mL (≈ 0.318 µM) | 0.25 µg/mL (≈ 0.662 µM) | 0.5 µg/mL (≈ 1.32 µM) | 0.5 µg/mL (≈ 1.32 µM) | 0.5 µg/mL (≈ 1.32 µM) | 4 µg/mL (≈ 10.6 µM) | 0.5 µg/mL (≈ 1.32 µM) | 0.5 µg/mL (≈ 1.32 µM) | MIC (A. baumannii J-143; [4]): > 32 µg/mL; MIC (A. baumannii S-334; [5]): > 32 µg/mL
3 | O=C(NNC(=O)[C@@H]1CC[C@@H]2CN1C(=O)N2OS(=O)(=O)O)[C@@H]1CCCNC1 [Example 2, trans-sulfuric acid mono-[2-(N′—[(R)-piperidin-3-carbonyl]-hydrazinocarbonyl)-7-oxo-1,6-diaza-bicyclo[3.2.1]oct-6-yl]ester] | > 32 µg/mL | > 32 µg/mL | 0.25 µg/mL (≈ 0.639 µM) | 0.25 µg/mL (≈ 0.639 µM) | 1 µg/mL (≈ 2.55 µM) | 0.25 µg/mL (≈ 0.639 µM) | 0.25 µg/mL (≈ 0.639 µM) | 8 µg/mL (≈ 20.4 µM) | 0.25 µg/mL (≈ 0.639 µM) | 0.12 µg/mL (≈ 0.307 µM) | 1 µg/mL (≈ 2.55 µM) | 8 µg/mL (≈ 20.4 µM) | 0.5 µg/mL (≈ 1.28 µM) | 0.25 µg/mL (≈ 0.639 µM) | 0.5 µg/mL (≈ 1.28 µM) | 0.12 µg/mL (≈ 0.307 µM) | 0.5 µg/mL (≈ 1.28 µM) | 8 µg/mL (≈ 20.4 µM) | 2 µg/mL (≈ 5.11 µM) | 0.5 µg/mL (≈ 1.28 µM) | MIC (A. baumannii J-143; [4]): > 32 µg/mL; MIC (A. baumannii S-334; [5]): > 32 µg/mL
4 | CC(C)(O/N=C(\C(=O)N[C@@H]1C(=O)N2C(C(=O)[O-])=C(C[n+]3ccccc3)CS[C@H]12)c1csc(N)n1)C(=O)O [Ceftazidime, reference compound] |  |  |  | > 32 µg/mL |  |  | 32 µg/mL (≈ 58.5 µM) | 1 µg/mL (≈ 1.83 µM) | > 32 µg/mL | 32 µg/mL (≈ 58.5 µM) | > 32 µg/mL | > 32 µg/mL | > 32 µg/mL | > 32 µg/mL | > 32 µg/mL | > 32 µg/mL | > 32 µg/mL | > 32 µg/mL | > 32 µg/mL | > 32 µg/mL | MIC (P. vulgaris S-137B): > 32 µg/mL; MIC [1]: > 32 µg/mL
5 | CO/N=C(\C(=O)N[C@@H]1C(=O)N2C(C(=O)[O-])=C(C[N+]3(C)CCCC3)CS[C@H]12)c1csc(N)n1 [Cefepime] |  |  |  |  |  |  |  |  |  |  |  |  |  |  |  |  |  |  |  |  | MIC (A. baumannii G-165; G165, Table 8, A. baumannii G-165, Cefepime alone or with sulbactam and/or compound at fixed concentrations as named in the composition, read-out: MIC of Cefepime): > 32 µg/mL; MIC (A. baumannii 1460648; Acinetobacter baumannii, Table 8, A. baumannii 1460648, Cefepime alone or with sulbactam and/or compound at fixed concentrations as named in the composition, read-out: MIC of Cefepime): > 32 µg/mL; MIC (A. baumannii J-143; J143, Table 8, A. baumannii J-143, Cefepime alone or with sulbactam and/or compound at fixed concentrations as named in the composition, read-out: MIC of Cefepime): > 32 µg/mL; MIC (A. baumannii S-334; S334, Table 8, A. baumannii S-334, Cefepime alone or with sulbactam and/or compound at fixed concentrations as named in the composition, read-out: MIC of Cefepime): 32 µg/mL
6 | O=C(NNC(=O)[C@@H]1CC[C@@H]2CN1C(=O)N2OS(=O)(=O)O)[C@@H]1CCCN1 [Example 1, trans-sulfuric acid mono-[2-(N′—[(S)-pyrrolidin-2-carbonyl]-hydrazinocarbonyl)-7-oxo-1,6-diaza-bicyclo[3.2.1]oct-6-yl]ester] |  |  | 0.25 µg/mL (≈ 0.662 µM) | 0.5 µg/mL (≈ 1.32 µM) | 0.25 µg/mL (≈ 0.662 µM) | 0.025 µg/mL (≈ 0.0662 µM) | 0.5 µg/mL (≈ 1.32 µM) | 16 µg/mL (≈ 42.4 µM) | 0.5 µg/mL (≈ 1.32 µM) | 0.25 µg/mL (≈ 0.662 µM) | 0.5 µg/mL (≈ 1.32 µM) | 16 µg/mL (≈ 42.4 µM) | 0.25 µg/mL (≈ 0.662 µM) | 0.5 µg/mL (≈ 1.32 µM) | 0.5 µg/mL (≈ 1.32 µM) | 2 µg/mL (≈ 5.3 µM) | 2 µg/mL (≈ 5.3 µM) | 32 µg/mL (≈ 84.8 µM) | 1 µg/mL (≈ 2.65 µM) | 0.5 µg/mL (≈ 1.32 µM) | 
